Source: patent US4725683A, “Fluorophenoxyphenoxypropionates and derivatives thereof” (The Dow Chemical Company, priority 1985, dated 1988)

Assays:
Assay type in all cases: in vivo
Barnyard Grass = assay: Preemergent activity; conditions: Echinochloa crus-galli, pre-emergence, read-out: Preemergence Control
Outline: (§1)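 Test compound was dissolved in acetone at twice the final concentration, then mixed with an equal volume of water containing 0.1% w/w Tween-20. The resulting emulsion was sprayed uniformly at a predetermined rate onto sandy loam seed beds sown with each species. Controls received acetone–Tween-20–water only.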

Johnson Grass = assay: Preemergent activity; conditions: Sorghum halepense, pre-emergence, read-out: Preemergence Control
Outline: as §1

Wheat = assay: Selective postemergence, track sprayer
Experimental: (§2) Representative compositions of the present invention were evaluated for the postemergence control of species of plants listed in Table A. In these evaluations, pots of the plant species listed in Table A, grown to a height of about 10 cms, were used. Aqueous spray compositions, containing various amounts of 2-[4-(2-fluoro-4-trifluoromethylphenoxy)-phenoxy]propionic acid methy ester, i.e., 125 ppm, 62.5 ppm, 31.25 ppm, 15.6 ppm, 7.8 ppm and 3.9 ppm, respectively, were applied to separate pots. The spray compositions were made by mixing the active ingredient in acetone to 1/2 the final volume, i.e., twice the final concentration. An equal amount of water was added to the active ingredient/acetone mixture wherein the water contained 0.1 percent by weight of TWEEN® 200 surfactant. The application to the plants was made to the point of run-off and was carried out with conventional spraying equipment. Other pots were sprayed with similar compositions containing no toxicant to serve as controls. Thereafter, the pots were maintained under conditions conducive for plant growth. Two weeks after treatment, the pots were examined for plant growth and evaluated on a scale of 0 to 100 where 0 represents no effect and 100 represents complete kill. The results of the examination of the treated pots are set forth below in Table A.
(§3) To further define the selective postemergence herbicidal characteristics of compounds of the present invention, chemicals were applied to additional species of grasses as listed in Table F. Chemicals evaluated were 2-[4-(4-bromo-2-fluorophenoxy)phenoxy]propionic acid methyl ester and its R isomer. Treatment conditions were similar to those described in Example A except that chemicals were delivered through a track sprayer set to deliver the appropriate dosages in 280.6 L/hectare of water containing 0.1% Tween-20 surfactant.

Goosegrass = assay: Selective postemergence, track sprayer
Experimental: as §2, §3

Green Foxtail = assay: Selective postemergence, track sprayer
Experimental: as §2, §3

Orchardgrass = assay: Selective postemergence, track sprayer
Experimental: as §2, §3

Broadleaf Signalgrass = assay: Selective postemergence, track sprayer
Experimental: as §2, §3

Annual Bluegrass = assay: Selective postemergence, track sprayer
Experimental: as §2, §3

Downey Brome = assay: Selective postemergence, track sprayer
Experimental: as §2, §3

Red Top = assay: Selective postemergence, track sprayer
Experimental: as §2, §3

COC(=O)C(C)Oc1ccc(Oc2ccc(Cl)cc2F)cc1 (racemic) [Example 4-Chloro-, 2-[4-(4-chloro-2-fluorophenoxy)phenoxy]propionic acid methyl ester]
pest or weed control at 70 g/ha (Barnyard Grass; 0.07 kgs/hectare): 40% | pest or weed control at 140 g/ha (Barnyard Grass; 0.14 kgs/hectare): 98% | pest or weed control at 280 g/ha (Barnyard Grass; 0.28 kgs/hectare): 98% | pest or weed control at 560 g/ha (Barnyard Grass; 0.56 kgs/hectare): 100% | pest or weed control at 1120 g/ha (Barnyard Grass; 1.12 kgs/hectare): 100% | pest or weed control at 70 g/ha (Johnson Grass; 0.07 kgs/hectare): 0% | pest or weed control at 140 g/ha (Johnson Grass; 0.14 kgs/hectare): 0% | pest or weed control at 280 g/ha (Johnson Grass; 0.28 kgs/hectare): 0% | pest or weed control at 560 g/ha (Johnson Grass; 0.56 kgs/hectare): 60% | pest or weed control at 1120 g/ha (Johnson Grass; 1.12 kgs/hectare): 80%

COC(=O)C(C)Oc1ccc(Oc2ccc(Br)cc2F)cc1 (racemic) [Example 4-Bromo-, 2-[4-(4-bromo-2-fluorophenoxy)phenoxy]propionic acid methyl ester]
Percent Control (Wheat; 0.0011 kgs/hectare): 0% | Percent Control (Wheat; 0.0023 kgs/hectare): 0% | Percent Control (Wheat; 0.0045 kgs/hectare): 0% | Percent Control (Wheat; 0.009 kgs/hectare): 0% | Percent Control (Wheat; 0.018 kgs/hectare): 0% | Percent Control (Wheat; 0.035 kgs/hectare): 0% | Percent Control (Wheat; 0.07 kgs/hectare): 0% | Percent Control (Wheat; 0.14 kgs/hectare): 10% | Percent Control (Wheat; 0.28 kgs/hectare): 40% | Percent Control (Wheat; 0.56 kgs/hectare): 50% | Percent Control (Goosegrass; 0.0011 kgs/hectare): 0% | Percent Control (Goosegrass; 0.0023 kgs/hectare): 0% | Percent Control (Goosegrass; 0.0045 kgs/hectare): 30% | Percent Control (Goosegrass; 0.009 kgs/hectare): 20% | Percent Control (Goosegrass; 0.035 kgs/hectare): 80% | Percent Control (Goosegrass; 0.07 kgs/hectare): 100% | Percent Control (Goosegrass; 0.14 kgs/hectare): 100% | Percent Control (Goosegrass; 0.28 kgs/hectare): 100% | Percent Control (Goosegrass; 0.56 kgs/hectare): 100% | Percent Control (Green Foxtail; 0.0011 kgs/hectare): 0% | Percent Control (Green Foxtail; 0.0023 kgs/hectare): 20% | Percent Control (Green Foxtail; 0.0045 kgs/hectare): 90% | Percent Control (Green Foxtail; 0.009 kgs/hectare): 90% | Percent Control (Green Foxtail; 0.035 kgs/hectare): 100% | Percent Control (Green Foxtail; 0.07 kgs/hectare): 100% | Percent Control (Green Foxtail; 0.14 kgs/hectare): 100% | Percent Control (Green Foxtail; 0.28 kgs/hectare): 100% | Percent Control (Green Foxtail; 0.56 kgs/hectare): 100% | Percent Control (Orchardgrass; 0.0011 kgs/hectare): 0% | Percent Control (Orchardgrass; 0.0023 kgs/hectare): 0% | Percent Control (Orchardgrass; 0.0045 kgs/hectare): 0% | Percent Control (Orchardgrass; 0.009 kgs/hectare): 0% | Percent Control (Orchardgrass; 0.035 kgs/hectare): 0% | Percent Control (Orchardgrass; 0.07 kgs/hectare): 80% | Percent Control (Orchardgrass; 0.14 kgs/hectare): 90% | Percent Control (Orchardgrass; 0.28 kgs/hectare): 90% | Percent Control (Orchardgrass; 0.56 kgs/hectare): 90% | Percent Control (Broadleaf Signalgrass; 0.0011 kgs/hectare): 70% | Percent Control (Broadleaf Signalgrass; 0.0023 kgs/hectare): 90% | Percent Control (Broadleaf Signalgrass; 0.0045 kgs/hectare): 80% | Percent Control (Broadleaf Signalgrass; 0.009 kgs/hectare): 100% | Percent Control (Broadleaf Signalgrass; 0.035 kgs/hectare): 100% | Percent Control (Broadleaf Signalgrass; 0.07 kgs/hectare): 100% | Percent Control (Broadleaf Signalgrass; 0.14 kgs/hectare): 100% | Percent Control (Broadleaf Signalgrass; 0.28 kgs/hectare): 100% | Percent Control (Broadleaf Signalgrass; 0.56 kgs/hectare): 100% | Percent Control (Annual Bluegrass; 0.0011 kgs/hectare): 0% | Percent Control (Annual Bluegrass; 0.0023 kgs/hectare): 0% | Percent Control (Annual Bluegrass; 0.0045 kgs/hectare): 0% | Percent Control (Annual Bluegrass; 0.009 kgs/hectare): 0% | Percent Control (Annual Bluegrass; 0.018 kgs/hectare): 0% | Percent Control (Annual Bluegrass; 0.035 kgs/hectare): 0% | Percent Control (Annual Bluegrass; 0.07 kgs/hectare): 0% | Percent Control (Annual Bluegrass; 0.14 kgs/hectare): 0% | Percent Control (Annual Bluegrass; 0.28 kgs/hectare): 0% | Percent Control (Annual Bluegrass; 0.56 kgs/hectare): 0% | Percent Control (Downey Brome; 0.0011 kgs/hectare): 0% | Percent Control (Downey Brome; 0.0023 kgs/hectare): 0% | Percent Control (Downey Brome; 0.0045 kgs/hectare): 0% | Percent Control (Downey Brome; 0.009 kgs/hectare): 0% | Percent Control (Downey Brome; 0.018 kgs/hectare): 0% | Percent Control (Downey Brome; 0.035 kgs/hectare): 0% | Percent Control (Downey Brome; 0.07 kgs/hectare): 0% | Percent Control (Downey Brome; 0.14 kgs/hectare): 0% | Percent Control (Downey Brome; 0.28 kgs/hectare): 0% | Percent Control (Downey Brome; 0.56 kgs/hectare): 0% | Percent Control (Red Top; 0.0011 kgs/hectare): 0% | Percent Control (Red Top; 0.0023 kgs/hectare): 0% | Percent Control (Red Top; 0.0045 kgs/hectare): 0% | Percent Control (Red Top; 0.009 kgs/hectare): 20% | Percent Control (Red Top; 0.035 kgs/hectare): 50% | Percent Control (Red Top; 0.07 kgs/hectare): 80% | Percent Control (Red Top; 0.14 kgs/hectare): 90% | Percent Control (Red Top; 0.28 kgs/hectare): 100% | Percent Control (Red Top; 0.56 kgs/hectare): 100%
